# Source: patent US12268901B2, “Targeting cell tropism receptors to inhibit cytomegalovirus infection” (priority 2017, dated 2025)
# Entries after “also recorded” stand apart in the source; their conditions may differ.
# Key:
# Format in all cases: cell-based, Human cytomegalovirus (HCMV)
# [1] = test system: TB40E-GFP virus binding to ARPE19 cells; test: Peptide blocking assay, cell-binding virus assay (viral DNA by qPCR); details: different amounts of Peptide 1 preincubated with virus at 37° C. for 2 h, applied to ARPE19 cells at 4° C. for 2 h
# Protocol: The shPDGFRA, shOR14I1 and shDMBT1 transduced ARPE19 cells were chilled on ice for 20 min and then incubated with chilled TB40E-GFP at the indicated MOT on ice for 1 h. The cells were then washed ten times with cold PBS. Cellular DNA and cell-associated viral DNA were isolated using a DNeasy Blood & Tissue Kit (Qiagen). Viral DNA (UL83) and host DNA ((β-ACTIN) was quantified by real-time quantitative PCR as described (E et al., J Virol 88, 2279-2290 (2014)).
# DNA was isolated from infected ARPE cells using the Dneasy Blood and Tissue DNA mini kit (Qiagen) according to the manufacturer's instructions. Viral genomes were quantified with a primer pair (pp549s and pp812as) and a probe (pp770s) for UL83 (3), and the number of viral genomes normalized to the number of cellular copies of β-ACTIN with a previously described set of primers and probe (4). Unknown sample values were determined on the basis of a standard curve of known copy numbers of UL83 (AD169-BAC) and β-ACTIN (pAB1-bactin-PCRscript) (kind gifts from Donald Coen, Harvard Medical School). […] Real-time PCR was performed and analyzed by using a ViiA7 Real-Time PCR System (Applied Biosystems). […]
# Viral binding to ARPE19 cells was evaluated in the presence of Sf9-OR14I1 membrane particles. […] After washing with cold PBS, viral DNA levels were quantified by qPCR. […] After cold PBS washing, viral DNA levels were quantified by qPCR. […]
# [2] = test system: HCMV infection of ARPE19 epithelial cells; test: Peptide blocking assay, infection of ARPE19 cells (percent GFP or IE positive cells); details: peptide 1 100 μg/ml
# Protocol: (§1) (A) Different amounts of peptide 1 were preincubated with TB40E-GFP virus and the mixture applied to ARPE19. Viral DNA levels were quantified by qPCR. (B) The results in (A) are presented as the relative amount of viral DNA relative to the DMSO control. (C) TB40E-GFP virus was preincubated with peptide 1 (100 μg/ml), or DMSO, followed by infection of ARPE19 cells (MOI=2.0). Cells were imaged for GFP expression at 2 dpi (D2) and 7 dpi (D7). (D) TB40E-GFP or BADrUL131-GFP virus, both expressing PC, were preincubated with peptide 1 (100 μg/ml), or DMSO prior to infection of ARPE19 cells (MOI=2.0). Cells were fixed and imaged for GFP at 2 dpi. All data represent the mean of n=3 experiments+/−SD. (E) Culture media supernatants from (C) were harvested on the indicated dpi and assayed for infectious virus by plaque assay. Values indicate the mean percent infected cells of 3 independent experiments±SD. ****p<0.0001.
# FIG. 9. […] TB40E-GFP encoding the viral PC or AD169 lacking PC were preincubated with peptide 1 (100 μg/ml) and then infected on ARPE19 epithelial cells or HEL fibroblasts (MOI=2.0). Cells were fixed, permeabilized, stained for DNA, immunostained for anti-immediate early protein (IE) and imaged. […] Values indicate the mean percentage of infected cells of n=3 experiments±SD. **p<0.01; ***p<0.001.
# FIG. 11. Each of the short peptides (aa sequences listed in Table 4; 150 uM), Peptide 1 (32.6 μM), or DMSO alone was preincubated with TB40E virus, followed by infection of ARPE19 cell lines (MOI=2.0). Cells were fixed and imaged for GFP and DNA at 2 dpi. Quantitation data indicating the percent GFP positive cells.
# Live cell images: Phase and GFP signal images were captured on a Zeiss microscope (Zeiss AxioObserver Z1) at 10× magnification. Fixed cell images: cells were washed with PBS (Life Technologies) and fixed with 4% formalin in PBS (Sigma). DNA was stained with Hoechst 33342 dye (Life Technologies). The fixed cells were imaged using an Image Xpress Micro (IXM, Molecular Devices) at 4× magnification. Images were analyzed with MetaXpress imaging software (Molecular Devices) to determine the total cells per well and the percentage of infected cells (GFP positive) in each well. For IE immunostaining: fixed cells were permeabilized with 0.2% Triton X-100 (Sigma) in PBS. Blocking was performed with 1% BSA (Calbiochem, 2930) in PBS with 0.3M glycine (Sigma). Cells were then incubated in antibody targeting the major IE proteins (IE, EMD Millipore, MAB8131) diluted in 1% BSA in PBS. Cells were then incubated in secondary antibody (Texas Red-conjugated goat anti-mouse IgG2A, Southern Biotech, 1080-07) in PBS containing 1% BSA.
# At 2 dpi with HCMV TB40E-GFP virus at the indicated MOI, ARPE19 cells were fixed with 4% formaldehyde and nuclei stained with Hoechst 33342. ARPE19 cells were imaged on an automated IXM scanning microscope. Numbers of infected cells were determined by calculating the percent GFP positive cells using MetaXpress software.
# (§2) The noted synthetic peptides (100 ug/ml each or as described) were mixed with TB40E-GFP virus (1.2×10^6 PFU) and incubated at 37° C. for 2 h by rocking. The resulting samples were then subjected to the virus binding or infection assay.
# [3] = test system: TB40E virus infection of epithelial cell lines; test: Peptide blocking assay, infection of several epithelial cell lines (percent GFP positive cells); details: Peptide 1 100 μg/ml, MOI=2.0, 2 dpi
# Protocol: FIG. 10. […] Peptide 1 (100 μg/ml), or DMSO alone was preincubated with TB40E virus, followed by infection of the indicated epithelial cell lines (MOI=2.0). Cells were fixed and imaged for GFP and DNA at 2 dpi. […] Values indicate the mean percentage of infected cells of three experiments±SD. **p<0.01; ***p<0.001.
# as §2
# [4] = test system: HCMV TB40E-GFP replication in ARPE19 cells; test: Plaque assay of culture supernatants for infectious virus; details: peptide 1 100 μg/ml, ARPE19, MOI=2.0, supernatants at indicated dpi
# Protocol: as §1
sequence,measurement,setting,value
"MDNLTKVTEFLLMEFSGIWELQVLHA (N-terminal fragment of OR14I1) [Peptide 1, synthetic peptide representing the N-terminus of OR14I1, position 1-26]",TB40E-GFP virus binding to ARPE19 cells (viral DNA by qPCR),[1],sufficient to prevent for TB40E-GFP virus binding ARPE19 cells
same,anti-viral action versus presence of viral PC,"[2]; TB40E-GFP encoding PC or AD169 lacking PC, MOI=2.0",dependent on the presence of the PC
same,anti-viral action versus viral strain,"[2]; TB40E-GFP or BADrUL131-GFP, MOI=2.0, 2 dpi",independent of viral strain
same,HCMV infection of ARPE19 epithelial cells (percent IE positive cells),"[2]; TB40E-GFP, MOI=2.0",blocks HCMV infection of ARPE19 epithelial cells
same,PC+ virus infection of multiple epithelial cell lines (percent GFP positive cells),[3],prevented PC+ virus infection; also recorded: inhibits HCMV infection of several epithelial cell lines
same,long-term replication of HCMV (infectious virus by plaque assay),[4],compromised the long-term replication of HCMV
